We go through one compound from article PMC11992618, “Development of cyclopeptide inhibitors specifically disrupting FXR–coactivator interaction in the intestine as a novel therapeutic strategy for MASH” (Life Metabolism, 2025).

In data set [1] the test system is Pxr, Vdr and Nr1i3 target gene expression in organoids. Kind of data set: PXR, VDR and CAR downstream gene expression in organoids. The class given is cell-based, mouse. Particulars: 24 h. An excerpt:
Intestinal crypts were isolated from 6- to 8-week-old C57BL/6 mice and Fxr^△IE mice as previously described with minor revision. Briefly, the abdomen of the mouse was dissected, and the small intestine was isolated with fats removed. The isolated intestine was flushed with cold PBS to remove the luminal contents. Then, the intestine was opened longitudinally and washed three times with PBS gently. The tissue was cut into small fragments (2 mm^2) and further washed three times with cold PBS gently, followed by incubation with 5 mmol/L EDTA-PBS at 4°C. After 40 min, the fragments were vortexed vigorously, and then the suspension was filtered through a […] and centrifuged at 50 g for 10 min. The crypts were counted and plated with Matrigel (1:1, 25 μL) and 500 μL IntestiCult Organoid Growth Medium with Supplements 1 and 2. The isolated crypts were cultured for 3–5 days and treated with indicated chemicals as described.
The intestine and liver were frozen in liquid nitrogen and stored at −80°C. RNA was extracted, and complementary DNA was synthesized from 1 μg total RNA. RT-qPCR was performed on a Bio-Rad CFX384 Touch detection system (Bio-Rad). […] RNA levels were analyzed by 2-^ΔΔCt, normalized to 18S ribosomal RNA and expressed as fold change relative to the control group.
Supplementary Figure S7 Selectivity of DC646. […] Data are presented as the mean ± SEM and analyzed by unpaired t-test.

In data set [2] the test system is intestinal FXR-ceramide axis and GLP-1. Kind of data set: HFD-fed mice, ileal FXR signaling, ceramides and serum GLP-1. The class given is in vivo, mouse. Conditions: oral 10 and 30 mg/kg. The protocol: Mice were fasted for 6 h and gavaged with a single dose of 25 mg/kg sitagliptin, followed by 2 g/kg glucose 45 min later. Blood samples were collected 15 min after glucose administration, and GLP-1 was measured using active GLP-1 kits.
The intestine and liver were frozen in liquid nitrogen and stored at −80°C. RNA was extracted, and complementary DNA was synthesized from 1 μg total RNA. RT-qPCR was performed on a Bio-Rad CFX384 Touch detection system (Bio-Rad). The primer sequences for RT-qPCR are shown in Supplementary Table S5. RNA levels were analyzed by 2-^ΔΔCt, normalized to 18S ribosomal RNA and expressed as fold change relative to the control group.
For ileal lipidomics, samples were homogenized, extracted with chloroform, and prepared for analysis. Separation was achieved using an Acquity UPLC CSH C18 column, and analysis was conducted via liquid chromatography electrospray ionization tandem mass spectrometry (LC-ESI-MS/MS). Mobile phases were comprised with acetonitrile–water and isopropanol/acetonitrile solutions, both containing 10 mmol/L ammonium acetate and 0.1% formic acid.
Supplementary Figure S9 DC646 antagonizes intestinal FXR, thereby reducing ceramide production and inducing GLP-1 production. (a) Relative mRNA expression of ileal FXR signaling. (b) Ileal ceramide levels (the data are normalized and centralized). (c) Relative mRNA expression of ileal ceramide-synthesis related genes. (d) Serum GLP-1 levels. HFD-fed mice were gavaged with vehicle or 10 mg/kg or 30 mg/kg DC646. n = 8 in each group. Data are presented as the mean ± SEM and analyzed by one-way ANOVA with Dunnett’s post hoc test. ^*P < 0.05, ^**P < 0.01, and ^***P < 0.001, versus HFD + Vehicle group.

Another data set in a line: Subacute toxicity test. The class given is in vivo, mouse. The protocol: For the subacute toxicity test of DC646, oral injection of vehicle, 20 mg/kg, 100 mg/kg, or 200 mg/kg DC646 to C57BL/6 male mice was carried out for 7 days. During the week, the body weight and food/water intake were monitored every day. The serum, liver, kidneys, brain, heart, lungs, spleen, testicle, and epididymis were weighed and collected 2 h after the final dosing.
Supplementary Figure S10 Subacute toxicity test of DC646 at 20 mg/kg, 100 mg/kg, or 200 mg/kg. (a) Strategy of animal experiment. (b) Body weight. (c) Food intake. (d) Water intake. (e) Representative pictures of organ morphologies. (f) 1/3 Intestine length and colon length. (g) Organ weight. (h and i) Serum ALT (h) and AST(i) levels. (j) H&E staining of heart, liver, spleen, lung, and kidney. n = 5 in each group. Data are presented as the mean ± SEM and analyzed by one-way ANOVA with Dunnett’s post hoc test.

Where [3] appears, read: C57BL/6 male mice, oral 20, 100, 200 mg/kg, 7 days.

With `CC(C)C[C@@H]1NC(=O)[C@@H]2CN(CCO2)c2cccc3c2c(cn3[Si](C(C)C)(C(C)C)C(C)C)C[C@H](NS(=O)(=O)C(F)(F)F)C(=O)OCCCCNC(=O)[C@H](CC(C)C)NC(=O)[C@@H]2CN(CCO2)c2cccc3c2c(cn3[Si](C(C)C)(C(C)C)C(C)C)C[C@H](NS(=O)(=O)C(F)(F)F)C(=O)OCCCCNC1=O` [DC646, N,N'-((1^2R,1^4S,16^2R,16^4S,4R,13R,19R,28R)-13,28-diisobutyl-5,12,15,20,27,30-hexaoxo-2^1,17^1-bis(triisopropylsilyl)-2^1H,17^1H-6,21-dioxa-11,14,26,29-tetraaza-1(4,2),16(2,4)-dimorpholina-2,17(4,3)-diindolacyclotriacontaphane-4,19-diyl)bis(1,1,1-trifluoromethanesulfonamide)], the “Pxr, Vdr and Nr1i3 target gene expression” value in data set [1] was “no significant impact”. Moreover, in data set [2], the “Ceramide levels in the ileum” value was “reduced” and the “Serum GLP-1 levels” value is on record as “markedly increased”. In data set [2] (dose-dependent), the “FXR signaling in the ileum (mRNA levels of Shp and Fgf15)” value is given as “repressed”. For the same compound, the “Tolerated dose over minimum effective dose” value in the data set “Subacute toxicity test” (200 mg/kg versus minimum effective dose) is on record as “more than 20 folds”. Further, the Food/water intake entry in the data set “Subacute toxicity test” (C57BL/6 male mice, oral 200 mg/kg, 7 days, normal body weight) was “mildly decreased”. Also, in “Subacute toxicity test” (setting [3]), the “Liver injury indicated by serum ALT and AST” value is “did not cause liver injury”; the “Organ morphology, small intestine and colon length, organ weight” value is listed as “no difference”. The “Body weight and food/water intake” value in the data set “Subacute toxicity test” (C57BL/6 male mice, oral 20 and 100 mg/kg, 7 days) is reported as “did not affect”. Further, the MTD at 168 h in the data set “Subacute toxicity test” (mouse, in vivo, C57BL/6 male mice, oral, 7 days, highest dosage tested, read-out: Highest dosage with good tolerance) amounted to 200 mg/kg.
